According to patent publication US5284759A, “Biological production of acetal or ketal substituted benzene compounds” (Minnesota Mining and Manufacturing Company, priority 1992, dated 1994):
Converted amounts (≈) assume the structure as drawn.

Experiments:
[1] = solubility of substrates in MSB buffer; format: physicochemical
From the text: (§1) Two significant parameters of each substrate tested were toxicity and water solubility. The combined effects of those parameters will influence the maximum rate of biotransformation by the microbial culture. Methods were developed to examine the effects of substrate concentration on the rate of biotransformation and cell growth. The rates of biotransformation were apparently independent of the substrates' water solubility. For example, the solubilities of bromobenzene, acetophenone, and 1-phenyl-1,2-ethanediol in MSB buffer (at 30° C.) are approximately 400 mg/liter, 2000 mg/liter, and 5000 mg/liter, respectively. Bromobenzene, one of the least water-soluble substrates tested, was transformed to its dihydrodiol by strain F39/D at an average rate of about 20 mg/liter/hour. […] Substrate toxicity was determined by examining the growth rate of strain F39/D in the presence of the test compounds.

[2] = system: Pseudomonas putida strain F39/D; assay: substrate toxicity: growth of strain F39/D in the presence of the test compounds; format: cell-based
From the text: as §1

[3] = system: Pseudomonas putida strain F39/D; assay: rate of biotransformation of substrate to its dihydrodiol by strain F39/D; format: cell-based
From the text: as §1
Biotransformation preferably involves the addition of the starting substrate to an induced microbial cell suspension. The microorganisms are then allowed to grow such that the enzyme, arene 2,3-dioxygenase may act on the substrate. The induced microorganisms are prepared as described above. […]

Structure (SMILES) | solubility in MSB buffer ([1]; msb buffer) | growth of the microbes ([2]; 1000 mg/l (one-half saturated level)) | growth of the microbes ([2]; 400 mg/l (saturated level)) | average rate of transformation to its dihydrodiol [3] | rate of transformation compared with acetophenone or 1-phenylethanediol ([3]; relative to acetophenone or 1-phenylethanediol transformation) | solubility in MSB buffer ([1]; MSB buffer, 30° C.)
OCC(O)c1ccccc1 (stereo not shown) [1-phenyl-1,2-ethanediol] | ~5000 µg/mL (≈ 36.2 mM) |  |  |  |  | 
CC(=O)c1ccccc1 [acetophenone] | ~2000 µg/mL (≈ 16.6 mM) | completely inhibited |  |  |  | 
Brc1ccccc1 [bromobenzene] |  |  | apparently unaffected | about 20 mg/liter/hour | much greater than that of acetophenone or 1-phenylethanediol transformation | approximately 400 mg/liter
